According to PMC12197678, “Cvill6 and Cvill7: Potent and Selective Peptide Blockers of Kv1.2 Ion Channel Isolated from Mexican Scorpion Centruroides villegasi” (Toxins, 2025):
Like-named read-outs stand apart in the source and are kept apart here. Positions of bridges follow the written chain, without caps; N, C: chain ends. Residues, ends and D or L forms follow the SMILES beside them.

What was measured:
hKv1.3 = target: T1, hKv1.3 (Homo sapiens, UniProt P22001); experiment: cell-based; format: cell-based
T1 construct: peripheral blood mononuclear cells (PBMCs) were isolated from the healthy donor’s blood; endogenous in cells
T1 sequence (P22001 whole entry): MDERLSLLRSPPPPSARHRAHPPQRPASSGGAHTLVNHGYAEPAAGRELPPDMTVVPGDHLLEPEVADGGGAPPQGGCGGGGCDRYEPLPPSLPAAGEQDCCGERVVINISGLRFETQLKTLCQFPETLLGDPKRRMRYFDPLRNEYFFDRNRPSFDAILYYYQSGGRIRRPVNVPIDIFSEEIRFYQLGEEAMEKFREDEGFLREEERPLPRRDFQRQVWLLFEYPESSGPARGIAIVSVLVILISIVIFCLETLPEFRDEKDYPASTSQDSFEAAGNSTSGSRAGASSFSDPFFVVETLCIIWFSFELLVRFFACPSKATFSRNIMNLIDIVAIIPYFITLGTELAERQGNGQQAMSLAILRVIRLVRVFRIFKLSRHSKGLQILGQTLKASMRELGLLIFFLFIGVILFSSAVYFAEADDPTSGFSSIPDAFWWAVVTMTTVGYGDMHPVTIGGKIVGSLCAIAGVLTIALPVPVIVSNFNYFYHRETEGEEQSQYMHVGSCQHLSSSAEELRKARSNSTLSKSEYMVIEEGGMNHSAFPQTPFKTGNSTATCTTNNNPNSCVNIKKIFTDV
Excerpt: Therefore, we aimed to investigate the effects of Cvill6 and Cvill7 on voltage-gated K^+ ion channels. Among the tested ion channels there were four members from the Shaker-related human Kv1 family, hKv1.1, hKv1.2, hKv1.3, and hKv1.5 (Figure 3A–E), and one member of the human ether-a-go-go-related (hERG) cardiac K^+ channel hKv11.1 (hERG1, Figure 3F). For current recordings, Kv1.1, Kv1.2, and Kv1.5 were transiently expressed in CHO cells while for Kv11.1 a stable HEK293 cell line was used. To record Kv1.3 currents human peripheral T lymphocytes were activated with Phytohemagglutinin A (PHA) to boost Kv1.3 expression and Ca^2+-free intracellular solution to prevent the KCa3.1 channel opening. […] Appropriate voltage protocols were applied to record the K^+ currents from voltage-clamped cells in whole-cell configurations. Toxins were freshly dissolved in the bath solution supplemented with 0.1 mg/mL BSA and applied to the patched cells via a gravity-fed micro-perfusion system with an approximate flow rate of 200 µL/min.
To avoid toxin adsorption onto the plastic surfaces of the perfusion system, 0.1 mg/mL of bovine serum albumin (BSA, Sigma-Aldrich, Budapest, Hungary) was also added into all bath solutions prior to the patch-clamp assay.
Whole-cell currents were recorded using the patch-clamp technique in voltage-clamp mode, following standard protocols. […] Micropipettes were made from GC150F-7.5 borosilicate capillaries (Harvard Apparatus Co., Holliston, MA, USA) using a Sutter P2000 laser puller with tip resistance generally ranging from 3–6 MΩ in the bath solution. Only recordings with a leak current at the holding potential (Vh) of <10% of the peak current at the test potential were included in the data analysis. All recordings were performed at room temperature (20–25 °C). Control and test solutions were perfused to the cells via a gravity-driven micro-perfusion system and AutoMate Perfusion Pencil Multi-Barrel Manifold Tip (AutoMate Scientific, Berkeley, CA, USA), with an approximate flow rate of 200 µL/min, and the excess amount of bath solution was continuously removed from the recording chamber using vacuum suction.
The duration of depolarization pulses was 15 ms for Kv1.3 and 50 ms for Kv1.1 and Kv1.5. However, for Kv1.2, 15–500 ms-long pulses were used to achieve the saturated peak current due to the variable activation kinetics of this channel. […] KCa2.2 and KCa3.1 currents were recorded by applying 150 ms-long voltage ramps to +50 mV from −120 mV every 10 s; the Vh was set to −85 mV.
Before analysis, all current traces were digitally filtered using three-point boxcar smoothing and were corrected for ohmic leakage, only if required. […] Data points in the concentration–response curve represent the mean RCF values of three to six individual cells, with error bars denoting the standard error of the mean (SEM). The data points for each concentration were fitted using the Hill equation: RCF = IC50^H/(IC50^H + [toxin]^H), where IC50 is the dissociation constant, H represents the Hill coefficient, and [toxin] is the concentration of the toxin.
To study the binding kinetics of Cvill toxins, the peak current during the application of toxin at time point t (It) was normalized to the peak current (I0) before the toxin exposure (Inorm = It/I0) and plotted as a function of time.

mKCa1.1 (BK or MaxiK) = format: cell-based, mice; conditions: 100 nM; ~3 min
Excerpt: Therefore, we investigated the activity of Cvill6 and Cvill7 toxins on three different types of Ca^2+-activated K^+ channels: (1) hKCa2.2 (SK2), the small-conductance Ca^2+-activated channel; (2) hKCa3.1 (IKCa1, SK4), the intermediate-conductance Ca^2+-activated channels, mainly expressed in T lymphocytes; and (3) mKCa1.1 (BK or MaxiK), the large-conductance voltage- and Ca^2+- activated channel of mice. Appropriate depolarization protocols were applied to record the K^+ current through respective KCa channels as shown in the inset of each panel in Figure 6A–C. […] The normalized peak currents (see Section 2.4 or Section 5 for details) for individual cells (n = 5) were averaged at each time point and plotted as a function of time.
HEK 293 cells stably expressing mKCa1.1 1 (BKCa, Kcnma1 gene, generously provided by C. Beeton from Baylor College of Medicine, Houston, TX, USA) or hKv11.1 (hERG1, KCNH2 gene, gifted by H. Wulff from University of California, Davis, CA, USA) were utilized in this study.
(§1) Whole-cell currents were recorded using the patch-clamp technique in voltage-clamp mode, following standard protocols [73]. […]

hKv1.2 = target: T2, hKv1.2 (Homo sapiens, UniProt P16389); experiment: Whole-cell patch-clamp, hKv1.2 current in transiently transfected CHO cells; format: cell-based; conditions: for inhibition at 0.001 µM / koff / kon: CHO; for inhibition at 0.001 µM: 1 nM; for koff: calculated from τoff; for koff / kon: 100 pM Cvill7 (n = 4) or 100 nM Cvill6 (n = 5); for kon: calculated from τon and τoff; for selectivity for Kv1.2 over Kv1.3: IC50 ratio; for τon (development of block) / τoff (wash-out): mean ± SEM; for Hill coefficient (H): Hill equation fit of RCF values; for mode of block: inferred from Hill coefficients close to 1 and single-exponential kinetics; for reversibility of Kv1.2 block: wash-out with toxin-free solution
T2 construct: host or cells: CHO cells, transient transfection (Lipofectamine 2000)
T2 sequence (P16389 whole entry): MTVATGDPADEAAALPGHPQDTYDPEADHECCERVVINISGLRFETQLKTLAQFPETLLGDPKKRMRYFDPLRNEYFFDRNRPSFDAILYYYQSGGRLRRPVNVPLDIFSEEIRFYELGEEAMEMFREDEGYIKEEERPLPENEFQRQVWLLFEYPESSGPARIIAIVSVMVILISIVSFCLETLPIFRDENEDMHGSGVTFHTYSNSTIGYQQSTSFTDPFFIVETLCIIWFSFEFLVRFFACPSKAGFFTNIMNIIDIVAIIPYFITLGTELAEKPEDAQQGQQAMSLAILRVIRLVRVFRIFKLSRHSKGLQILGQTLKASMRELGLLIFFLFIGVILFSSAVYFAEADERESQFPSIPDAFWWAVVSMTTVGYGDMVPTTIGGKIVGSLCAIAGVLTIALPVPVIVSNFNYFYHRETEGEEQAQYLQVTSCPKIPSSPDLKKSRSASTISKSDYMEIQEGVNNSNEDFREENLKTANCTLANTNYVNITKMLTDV
Protocol: Chinese hamster ovary (CHO) cells (generously provided by Yosef Yarden, Weizmann Institute of Science, Rehovot, Israel) or human embryonic kidney (HEK293) cells were cultured and maintained in Dulbecco’s modified Eagle medium (DMEM, Thermo Fisher Scientific, Waltham, MA, USA) supplemented with 2 mM L-glutamine, 10% fetal bovine serum (FBS), 100 µg/mL streptomycin, and 100 U/mL penicillin-g (Sigma-Aldrich, Budapest, Hungary) following standard culturing conditions [52]. For transient expression of ion channels, CHO cells were transfected using the Lipofectamine 2000 kit (Invitrogen, Waltham, MA, USA) following the manufacturer’s instructions with plasmids encoding specific ion channels, including hKv1.1 (KCNA1 gene), hKv1.2 (KCNA2 gene), and hKv1.5 (KCNA5 gene) in a pCMV6-AC-GFP vector (OriGene Technologies), hKCa2.2 (KCNN2 gene) in a pCDN3 plasmid (for this transfection a GFP containing plasmid was co-transfected, courtesy of Bernard Attali, Tel Aviv University, Tel Aviv, Israel), and hKCa3.1 (KCNN4 gene) in a pEGFP-C1 vector (a kind gift by H. Wulff, University of California, Davis, CA, USA). […] Electrophysiological recordings were typically conducted 24 to 48 h after transfection.
Whole-cell currents were recorded using the patch-clamp technique in voltage-clamp mode, following standard protocols [73]. […] Micropipettes were made from GC150F-7.5 borosilicate capillaries (Harvard Apparatus Co., Holliston, MA, USA) using a Sutter P2000 laser puller with tip resistance generally ranging from 3–6 MΩ in the bath solution. Only recordings with a leak current at the holding potential (Vh) of <10% of the peak current at the test potential were included in the data analysis. All recordings were performed at room temperature (20–25 °C). Control and test solutions were perfused to the cells via a gravity-driven micro-perfusion system and AutoMate Perfusion Pencil Multi-Barrel Manifold Tip (AutoMate Scientific, Berkeley, CA, USA), with an approximate flow rate of 200 µL/min, and the excess amount of bath solution was continuously removed from the recording chamber using vacuum suction.
The duration of depolarization pulses was 15 ms for Kv1.3 and 50 ms for Kv1.1 and Kv1.5. However, for Kv1.2, 15–500 ms-long pulses were used to achieve the saturated peak current due to the variable activation kinetics of this channel [74].

hKv1.5 = format: cell-based, human; conditions: 100 nM; ~3 min
Protocol: Chinese hamster ovary (CHO) cells (generously provided by Yosef Yarden, Weizmann Institute of Science, Rehovot, Israel) or human embryonic kidney (HEK293) cells were cultured and maintained in Dulbecco’s modified Eagle medium (DMEM, Thermo Fisher Scientific, Waltham, MA, USA) supplemented with 2 mM L-glutamine, 10% fetal bovine serum (FBS), 100 µg/mL streptomycin, and 100 U/mL penicillin-g (Sigma-Aldrich, Budapest, Hungary) following standard culturing conditions [52]. For transient expression of ion channels, CHO cells were transfected using the Lipofectamine 2000 kit (Invitrogen, Waltham, MA, USA) following the manufacturer’s instructions with plasmids encoding specific ion channels, including hKv1.1 (KCNA1 gene), hKv1.2 (KCNA2 gene), and hKv1.5 (KCNA5 gene) in a pCMV6-AC-GFP vector (OriGene Technologies), hKCa2.2 (KCNN2 gene) in a pCDN3 plasmid (for this transfection a GFP containing plasmid was co-transfected, courtesy of Bernard Attali, Tel Aviv University, Tel Aviv, Israel), and hKCa3.1 (KCNN4 gene) in a pEGFP-C1 vector (a kind gift by H. Wulff, University of California, Davis, CA, USA). […] Electrophysiological recordings were typically conducted 24 to 48 h after transfection. […]
as §1

[1] = read-out: inhibition of hKv1.3 current
[2] = representative record, read-out: inhibition of hKv1.2 current

CC[C@H](C)[C@H](N)C(=O)N[C@@H](Cc1ccccc1)C(=O)N[C@H](C(=O)N[C@@H](CC(N)=O)C(=O)N[C@H](C(=O)N[C@@H](CCCCN)C(=O)N[C@H]1CSSC[C@@H]2NC(=O)[C@H](CCCCN)NC(=O)CNC(=O)CNC(=O)[C@H](C)NC(=O)[C@H](Cc3c[nH]cn3)NC(=O)[C@H](CCC(N)=O)NC(=O)CNC(=O)[C@H](Cc3ccccc3)NC(=O)[C@H](CCCNC(=N)N)NC(=O)[C@H](CC(=O)O)NC(=O)[C@H](CCCCN)NC(=O)[C@@H]3CSSC[C@@H](C(=O)N[C@@H](Cc4ccc(O)cc4)C(=O)N4CCC[C@H]4C(=O)O)NC(=O)[C@H](CCCCN)NC(=O)[C@H](CSSC[C@H](NC(=O)[C@H](CCC(N)=O)NC(=O)[C@H](CCC(N)=O)NC(=O)[C@@H]4CCCN4C(=O)[C@H](CC(C)C)NC(=O)[C@H](CC(=O)O)NC1=O)C(=O)N[C@@H](CC(C)C)C(=O)N[C@@H](CCCNC(=N)N)C(=O)N1CCC[C@H]1C(=O)N3)NC(=O)[C@H](CCCCN)NC(=O)CNC(=O)[C@H](CC(N)=O)NC(=O)[C@H]([C@@H](C)CC)NC2=O)C(C)C)[C@@H](C)CC [Cvill6] (H-IFINVKCDLPQQCLRPCKDRFGQHAGGKCINGKCKCYP-OH; disulfide 7-29, 13-34, 17-36 (inferred); N-terminus and C-terminus assumed)
potency estimated from few doses (hKv1.3; read-out: estimated IC50): ~840 nM
inhibition at 0.1 µM (hKv1.3; read-out: inhibition of Kv1.3): ~11%
inhibition at 0.1 µM (hKv1.3; [1]): ~13%
effect on KCa1.1 current (mKCa1.1 (BK or MaxiK)): Neither Cvill6 nor Cvill7 showed any effect
IC50 (hKv1.2): 3.9 ± 0.27 nM
steady-state block of Kv1.2 (hKv1.2; 100 nM, n = 5): 97 ± 1.2%
inhibition at 0.001 µM (hKv1.2; [2]): ~28%
inhibition at 0.001 µM (hKv1.2; screening summary (Figure 3G), read-out: inhibition of hKv1.2 currents): ~16%
koff (hKv1.2; Kv1.2): 0.00091 s⁻¹
kon (hKv1.2; Kv1.2): 290000 M⁻¹ s⁻¹
times less potency for Kv1.2 than Cvill7 (hKv1.2; IC50 comparison): 244 times
selectivity for Kv1.2 over Kv1.3 (hKv1.2): ~ 215 fold
τon (development of block) (hKv1.2; Kv1.2, 100 nM, n = 5): 35 ± 2.7 s
τon, representative fit (hKv1.2; Kv1.2, 100 nM, representative fit (Figure S5C)): 38.7 s
Hill coefficient (H) (hKv1.2; Kv1.2): 1.4
τoff (wash-out) (hKv1.2; Kv1.2, after 100 nM, n = 5): 1287 ± 259 s
τoff, representative fit (hKv1.2; Kv1.2, after 100 nM, representative fit (Figure S5C)): 776.4 s
Kd (hKv1.2; Kv1.2, koff/kon ratio, 100 nM, read-out: dissociation constant (Kd), koff/kon): 3.3 nM
mode of block (hKv1.2): pore blockers that interact with channels with 1:1 stoichiometry in a bimolecular interaction
recovery of Kv1.2 current, up to % of initial current (hKv1.2; toxin-free solution after 100 nM): up to 65%
reversibility of Kv1.2 block (hKv1.2): reversible but with very slow dissociation kinetics
effect on hKv1.5 current (hKv1.5): no change in current amplitudes

CC[C@H](C)[C@H](NC(=O)[C@H](Cc1ccccc1)NC(=O)[C@@H](N)[C@@H](C)O)C(=O)N[C@@H](CC(N)=O)C(=O)N[C@H](C(=O)N[C@@H](CCCCN)C(=O)N[C@H]1CSSC[C@@H]2NC(=O)[C@H](CCCCN)NC(=O)CNC(=O)CNC(=O)[C@H](C)NC(=O)[C@H](Cc3c[nH]cn3)NC(=O)[C@@H]3CCCN3C(=O)CNC(=O)[C@H](Cc3ccc(O)cc3)NC(=O)[C@H](CC(C)C)NC(=O)[C@H](CC(=O)O)NC(=O)[C@H](CCCCN)NC(=O)[C@@H]3CSSC[C@@H](C(=O)N[C@@H](Cc4ccc(O)cc4)C(=O)N[C@@H](CC(N)=O)C(=O)N[C@@H](CC(N)=O)C(N)=O)NC(=O)[C@H](CCCCN)NC(=O)[C@H](CSSC[C@H](NC(=O)[C@H](CCC(N)=O)NC(=O)[C@H](CCCCN)NC(=O)[C@@H]4CCCN4C(=O)[C@H](CO)NC(=O)[C@H]([C@@H](C)O)NC1=O)C(=O)N[C@@H](CC(C)C)C(=O)N[C@@H](CCCCN)C(=O)N1CCC[C@H]1C(=O)N3)NC(=O)[C@H](CCCCN)NC(=O)CNC(=O)[C@H](CC(N)=O)NC(=O)[C@H](CCSC)NC2=O)C(C)C [Cvill7] (H-TFINVKCTSPKQCLKPCKDLYGPHAGGKCMNGKCKCYNN-NH2; disulfide 7-29, 13-34, 17-36; N-terminus and C-terminus assumed)
IC50 (hKv1.3): 7.2 ± 0.64 nM
Kd (hKv1.3): 25 nM
koff (hKv1.3): 0.032 ± 0.0068 s⁻¹
kon (hKv1.3): 1.3e+06 M⁻¹ s⁻¹
reversibility of Kv1.3 block (hKv1.3; 15 nM, then toxin-free solution): fully reversible with rapid association and dissociation kinetics
equilibrium block of Kv1.3 (hKv1.3; 15 nM, n = 3): 67 ± 3%
τon (development of block) (hKv1.3; Kv1.3, 15 nM, mean ± SEM, n = 3): 20 ± 1.8 s
τon, representative fit (hKv1.3; Kv1.3, 15 nM, representative fit (Figure S5B)): 22.6 s
Hill coefficient (H) (hKv1.3; Kv1.3, Hill equation fit of RCF values): 0.73
τoff (wash-out) (hKv1.3; Kv1.3, after 15 nM, mean ± SEM, n = 3): 34 ± 6 s
τoff, representative fit (hKv1.3; Kv1.3, after 15 nM, representative fit (Figure S5B)): 34.5 s
inhibition at 0.1 µM (hKv1.3; [1]): ~86%
effect on KCa1.1 current (mKCa1.1 (BK or MaxiK)): Neither Cvill6 nor Cvill7 showed any effect
IC50 (hKv1.2): 0.016 ± 0.00156 nM
time to apparent saturation of Kv1.2 block (hKv1.2; 100 pM): 7 to 8 min
loss of Kv1.2 current at saturation (hKv1.2; 100 pM, n = 4): 96 ± 1.4%
inhibition at 0.001 µM (hKv1.2; [2]): > 97%
koff (hKv1.2; Kv1.2): 0.00017 s⁻¹
kon (hKv1.2; Kv1.2): 1e+08 ± 1.5e+07 M⁻¹ s⁻¹
selectivity for Kv1.2 over Kv1.3 (hKv1.2): ~ 450 fold
selectivity for Kv1.2 over KCa3.1 (hKv1.2; KCa3.1 IC50 estimated from a single concentration): > 32,000 fold
selectivity for Kv1.2 over Kv1.1 (hKv1.2; Kv1.1 IC50 estimated from a single concentration): ~ 12,000 fold
τon, representative fit (hKv1.2; Kv1.2, 100 pM, representative fit (Figure S5A)): 75.3 s
τon (development of block) (hKv1.2; Kv1.2, 100 pM, single-exponential fits cell-by-cell, n = 4): 104 ± 15 s
Hill coefficient (H) (hKv1.2; Kv1.2): 1.03
τoff (wash-out) (hKv1.2; Kv1.2, after 100 pM, n = 4): 5978 ± 538 s
τoff, representative fit (hKv1.2; Kv1.2, after 100 pM, representative fit (Figure S5A)): 7380 s
selectivity over several other ion channels (hKv1.2; Kv1.2 vs several other ion channels): three orders of magnitude selectivity over several other ion channels
mode of block (hKv1.2): pore blockers that interact with channels with 1:1 stoichiometry in a bimolecular interaction
recovery of blocked Kv1.2 current (hKv1.2; toxin-free solution for ~15 min after 100 pM): just one-fifth of the blocked current recovered
reversibility of Kv1.2 block (hKv1.2): virtually irreversible inhibitor of Kv1.2
effect on hKv1.5 current (hKv1.5): did not show any effect
